Where two headings read alike, the source gives them in different places.
Columns and labels:
[1] = test system: ADP-induced platelet aggregation; assay: in vitro inhibition of ADP-induced platelet aggregation (aggregometer method of Born, platelet rich plasma); assay type: cell-based; settings: human platelet rich plasma; ADP 2.5 mcg/ml; as the dihydrochloride salt; read-out: EC50 versus ADP (inhibition of ADP-induced platelet aggregation)
Procedure: The aggregometer method of Born^1, as modified by Mustard, et al.^2 was used to assess the in vitro activity of the various compounds as to inhibition of adenosine diphosphate (ADP) and collagen-induced platelet aggregation. Platelet rich plasma (PRP) was separated by centrifugation from citrated (3.8 percent) human blood. ADP in final concentration of 2.5 mcg/ml or 0.05 ml of a collagen suspension prepared according to the method described by Evans, et al.^3 was used to induce aggregation. The various Evans, et al. compounds tested were dissolved in dimethylsulfoxide (DMSO) so that 5 mcl added to the platelet rich plasma would yield the desired test concentration. Vehicle control trials were done and compared with aggregation induced in platelet rich plasma containing various concentrations of the test compounds. Dose response curves were thus obtained and Effective Concentration (EC50) values calculated.

[2] = target: T1, cyclic AMP phosphodiesterase (PDE) enzyme obtained from human platelets (Homo sapiens, UniProt Q14432); assay: inhibition of cyclic AMP phosphodiesterase; assay type: biochemical; settings: human platelet PDE
T1 construct: phosphodiesterase (PDE) enzyme obtained from human platelets; from tissue; host or cells: human platelets
T1 sequence (Q14432 whole entry): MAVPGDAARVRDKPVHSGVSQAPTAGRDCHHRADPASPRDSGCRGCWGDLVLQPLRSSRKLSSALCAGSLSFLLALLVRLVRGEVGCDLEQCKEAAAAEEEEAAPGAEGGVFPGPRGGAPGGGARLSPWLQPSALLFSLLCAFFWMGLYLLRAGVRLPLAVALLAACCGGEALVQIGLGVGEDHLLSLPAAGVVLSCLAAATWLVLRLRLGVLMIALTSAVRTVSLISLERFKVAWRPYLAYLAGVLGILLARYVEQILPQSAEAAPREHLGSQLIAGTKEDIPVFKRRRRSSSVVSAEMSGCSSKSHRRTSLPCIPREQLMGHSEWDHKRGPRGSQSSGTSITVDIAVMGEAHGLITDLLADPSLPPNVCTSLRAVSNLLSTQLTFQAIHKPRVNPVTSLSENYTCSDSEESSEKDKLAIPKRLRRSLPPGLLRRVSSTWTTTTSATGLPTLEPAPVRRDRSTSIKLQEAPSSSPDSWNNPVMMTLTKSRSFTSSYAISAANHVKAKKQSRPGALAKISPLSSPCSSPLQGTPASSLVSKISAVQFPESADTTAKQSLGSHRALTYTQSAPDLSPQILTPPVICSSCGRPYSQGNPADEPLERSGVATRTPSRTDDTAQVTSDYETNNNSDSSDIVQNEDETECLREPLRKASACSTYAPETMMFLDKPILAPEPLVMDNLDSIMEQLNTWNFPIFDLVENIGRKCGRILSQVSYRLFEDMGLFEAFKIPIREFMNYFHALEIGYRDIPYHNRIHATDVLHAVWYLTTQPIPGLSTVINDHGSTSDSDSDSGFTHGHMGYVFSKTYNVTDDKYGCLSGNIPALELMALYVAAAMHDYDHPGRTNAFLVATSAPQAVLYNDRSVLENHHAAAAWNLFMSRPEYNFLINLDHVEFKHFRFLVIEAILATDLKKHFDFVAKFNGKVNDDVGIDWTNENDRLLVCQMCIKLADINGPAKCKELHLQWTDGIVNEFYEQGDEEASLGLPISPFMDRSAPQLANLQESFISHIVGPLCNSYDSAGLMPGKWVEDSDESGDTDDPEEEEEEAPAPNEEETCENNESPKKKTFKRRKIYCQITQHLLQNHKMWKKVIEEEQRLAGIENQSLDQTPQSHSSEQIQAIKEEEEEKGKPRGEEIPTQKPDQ
Procedure: This assay is carried out essentially as described by Thompson, et al., Methods in Enzymology, 38, […] (1974). Briefly, tritium labeled cyclic adenosine monophosphate (cAMP) is incubated with a phosphodiesterase (PDE) enzyme obtained from human platelets which converts a portion of the cAMP to 5'AMP in culture tubes. This reaction is terminated by submerging the tubes in a boiling water bath after which they are placed on ice and an aliquot of snake venom is added to each tube. This, during a second incubation, converts the 5'AMP to adenosine. Ion exchange resin is added to bind the remaining cyclic AMP. The tubes are centrifuged to sediment the resin and a portion of the clear supernatent (which contains radioactive adenosine) is counted in a liquid scintillation counter. The cAMP phosphodiesterase inhibition activity of a test agent is determined by pre-incubating the PDE enzyme preparation with the test agent. Dose response values are obtained and activity of the test agent reported as the molar (M) concentration of the test agent inhibition 50% of the PDE activity (IC50 s).

[3] = test system: ferrets; assay: in vivo inotropic activity in anesthetized ferrets (hemodynamic parameters and right ventricular contractile force); design: species or system ferret; settings: for change in vivo at 3 mg/kg: Mustela putorius, intraduodenal, 1 h, 3 mg/kg intraduodenally, monitored 60 minutes
Procedure: This test is […] out in ferrets as follows. Fasted anesthetized ferrets are instrumented to study hemodynamic parameters as well as right ventricular contractile force (RVCF) using a Walton-Brodie open strain gauge arch. Drugs are administered intraduodenally as solutions in DMSO (1 mL or less) and effects on myocardial contractile force and other parameters are monitored for 60 minutes after dosing. Changes in contractile force in response to drug treatment are expressed in terms of percent change from predose control.

[4] = test system: Biolaser-induced thrombosis / platelet aggregation in rabbit ear; assay: in vivo inhibition of biolaser-induced platelet aggregation in the rabbit ear (Biolaser Model); design: species or system rabbit (English, half-lop); settings: for inhibition in vivo at 0.1 mg/kg: Oryctolagus cuniculus, Platelet, po, 0.1 mg/kg orally, 2 hours
Procedure: Transparent ear chambers were chronically implanted in adult, English, half-lop rabbits. The animals were conditioned to lie quietly in a supine position. Localized microvascular injury was induced by focusing a single pulse ruby laser beam through a microscope into the lumen of a vessel […] in diameter. This evoked the formation of a small thrombus consisting of platelets accumulated around a core of one or two damaged red cells. Thrombi areas were determined using computerized planimetry. The mean thrombus area (μM^2) obtained for 10 trials in each rabbit served as the control value. Subsequently, the test compound was administered orally and 2 hours later a second series of laser-induced thrombi trials were performed. Drug activity was evaluated by comparing pre-and post-dose mean thrombus areas. Activity determined at other time points beyond 2 hours establish duration of action.

[5] = solubility; assay type: physicochemical
[6] = change from predose control, read-out: Ferret, Maximum % Change, VCF (ventricular contractile force)
[7] = read-out: Ferret, Maximum % Change, HR (heart rate)
[8] = read-out: Ferret, Maximum % Change, MAP (mean arterial blood pressure)
[9] = Table I, read-out: cAMP PDE IC50 (m)

Row | SMILES | EC50 [1] | IC50 ([2]; read-out: IC50, cAMP phosphodiesterase inhibition) | change in vivo at 3 mg/kg [3, 6] | change in vivo at 3 mg/kg [3, 7] | change in vivo at 3 mg/kg [3, 8] | inhibition in vivo at 0.1 mg/kg ([4]; rabbit) | IC50 [2, 9] | activity in Biolaser Model relative to Table I compounds ([4]; 0.3 mg/kg body weight, compared with Table I compounds) | inhibition in Biolaser Model ([4]; 0.3 mg/kg body weight, rabbit) | solubility ([5]; 2.0n hcl, read-out: solubility in 2.0N HCl) | solubility ([5]; water, read-out: solubility in water) | increase in RVCF (right ventricular contractile force) ([3]; 3 mg/kg, ferret)
1 | O=C(CCCOc1ccc2nc3[nH]c(=O)[nH]c3cc2c1)N1CCN(CC2CCCCC2)CC1 [Example 22, 1-(Cyclohexylmethyl)-4-[4-(2,3-dihydro-2-oxo-1H-imidazo[4,5-b]quinolin-7-yloxy)-1-oxybutyl]piperazine] | 910 nM | 0.4 nM | 27% | 29% | -15% | 59% |  |  |  |  |  | 
2 | O=C(CCCOc1ccc2nc3[nH]c(=O)[nH]c3cc2c1)N1CCN(Cc2cccc(C(F)(F)F)c2)CC1 [Example 14, 1-[4-(2,3-Dihydro-2-oxo-1H-imidazo[4,5-b]quinolin-7-(yloxy)-1-oxobutyl]-4-[[3-trifluormethyl)phenyl-]methyl]piperazine] |  |  | 3% | 12% | -16% | 49% | 9 nM |  |  |  |  | 
3 | O=C(CCCOc1ccc2nc3[nH]c(=O)[nH]c3cc2c1)N1CCN(c2ccccn2)CC1 [Example 19] |  |  | -8% | 12% | -15% | 47% | 5 nM |  |  |  |  | 
4 | O=C(CCCOc1ccc2nc3[nH]c(=O)[nH]c3cc2c1)N1CCN(c2ccccc2)CC1 [1-[4-[(2,3-dihydro-2-oxo-1H-imidazo[4,5-b]-quinolin-7-yl)oxy]-1-oxobutyl]-4-phenylpiperazine, reference compound] |  |  |  |  |  |  |  | markedly less active than Table I compounds | 22% | < 10 µg/mL | < 10 µg/mL | 
5 | O=C(CCCOc1ccc2nc3[nH]c(=O)[nH]c3cc2c1)N1CCN(C2CCCCCC2)CC1 [Example 25, 1-Cycloheptanyl-4-[4-(2,3-dihydro-2-oxo-1H-imidazo[4,5-b]quinolin-7-yloxy)-1-oxobutyl]piperazine] |  |  | 26% | 17% | -12% | 49% | 0.9 nM |  |  |  |  | 
6 | O=C(CCCOc1ccc2nc3[nH]c(=O)[nH]c3cc2c1)N1CCN(Cc2ccccc2)CC1 [Example 11] |  |  | 28% | 31% | -42% | 50% | 0.7 nM |  |  |  |  | 
7 | O=C(CCCOc1ccc2nc3[nH]c(=O)[nH]c3cc2c1)N1CCN(Cc2ccc(F)cc2)CC1 [Example 13] |  |  | 32% | 21% | -11% | 46% | 2 nM |  |  |  |  | 
8 | Cc1[nH]c(=O)c(C#N)cc1-c1ccncc1 [milrinone, reference compound] |  |  |  |  |  |  |  |  |  |  |  | 52%
9 | O=C(CCCOc1ccc2nc3[nH]c(=O)[nH]c3cc2c1)N1CCN(Cc2cccs2)CC1 [Example 16, 1-[4-(2,3-Dihydro-2-oxo-1H-imidazo[4,5-b]quinolin-7-yloxy)-1-oxobutyl]-4-(2-thienylmethyl)piperazine] |  |  | 30% | 16% | -27% | 49% | 0.7 nM |  |  |  |  | 
10 | COc1ccc(CN2CCN(C(=O)CCCOc3ccc4nc5[nH]c(=O)[nH]c5cc4c3)CC2)cc1 [Example 15] |  |  | 24% | 17% | -23% | 48% | 3 nM |  |  |  |  | 

Reference: patent US4943573A, “Imidazo[4,5-b]quinolinyloxyalkanoic acid amides with enhanced water solubility” (Bristol-Myers Squibb Company, priority 1989, dated 1990)
